According to patent US12298306B2, “Marker for identifying patients with gliobastoma who respond positively to the drug regorafenib” (ISTITUTO ONCOLOGICO VENETO IOV-IRCCS, priority 2018, dated 2025):

Tests used:
glioblastoma = experiment: REGOMA randomized, controlled, phase II clinical trial, survival by pACC Ser79 marker status; assay type: in vivo, patients
Protocol: Once all samples of the REGOMA trial which are available for the translational study (Table 1) have been stained, the biostatistics and clinical trial team of IOV (Mr. De Salvo—doctor) performed a statistical analysis to evaluate the possible prognostic or predictive meaning of the response of pACC^Ser79.
To evaluate the prognostic role of pACC^Ser79, an analysis was carried out according to the Cox model, considering pACC^Ser79 as an independent variable and dividing the patient samples into positive and negative (as reported above), and survival, being both free from disease progression and as a whole, as a dependent variable.
To evaluate the predictive role of pACC^Ser79, the variable of the treatment received by the patient was added to the Cox model (in particular, according to a randomized assignment, the patient received Regorafenib or Lomustine) in addition to the interaction factor of received treatment*status of the marker pACC^Ser79 (positive/negative).

[1] = tested on: glioblastoma at diagnosis; conditions: in association with standard treatment; cited from earlier work

| Compound | benefit from treatment in patients with neoplastic tissue positive to pACC Ser79 (glioblastoma; Cox model with treatment*marker interaction, comparator Lomustine) | survival after second-line treatment in patients whose tumor samples express pACC Ser79 (glioblastoma; pACC Ser79 positive tumor samples, second-line treatment, REGOMA) | PFS [1] | quality of life [1] | survival (OS) [1] |
| --- | --- | --- | --- | --- | --- |
| CNC(=O)c1cc(Oc2ccc(NC(=O)Nc3ccc(Cl)c(C(F)(F)F)c3)c(F)c2)ccn1 [Regorafenib] | most benefited | longer survival |  |  |  |
| bevacizumab |  |  | improved | improved | no significant survival advantages |
